Assay results published in patent publication US10314920B2, “Therapeutic dendrimers” (ASTRAZENECA AB, priority 2017, dated 2019).
Values after ≈ are worked out from the molar mass of the structure shown. Values joined by “and” are separate entries in the source; they are usually repeats but may differ in a detail not shown here. Equal values may be shown once. “Also recorded” adds a separate entry of the source.

Columns and labels:
NCI-H1048 tumor cells = experiment: In vivo anti-tumor activity in human small cell lung cancer tumor model (NCI-H1048); parameters: species or system mouse; conditions: 15 mg/kg daily (qd), oral
Method: AZD2014 was formulated in 0.5% hydroxypropyl methylcellulose/0.1% Tween 80 and dosed oral in a volume of 10 ml/kg 5×10^6 NCI-H1048 tumor cells were injected subcutaneously in the right flank of C.B.-17 SCID female mice in a volume of 0.1 mL containing 50% matrigel. Tumor volume (measured by caliper) was calculated using the formula:length (mm)×width (mm)^2×0.52. For efficacy studies, mice were randomized based on tumor volume and growth inhibition was assessed by comparison of the differences in tumor volume between control and treated groups. Dosing began when mean tumor volume reached approximately 124 mm^3.

[1] = Plasma protein binding, Equilibrium Dialysis RED device, rat plasma; format: in vitro ADME; conditions: male, Han Wistar, pooled frozen plasma, 30 hours at 37° C., read-out: percentage unbound
Method: (§1) Protein binding of Compound A (prepared as DMSO stock solutions and spiked into plasma at nominal incubation concentrations of 0.1, 1, 10 and 100 μmol/L) was evaluated in pooled frozen plasma obtained from male CD-1 mice, male Han Wistar rats, female New Zealand White rabbits, male Beagle dogs and male humans in triplicate using Equilibrium Dialysis RED device methodology (Waters N J et al., Validation of a Rapid Equilibrium Dialysis Approach for the Measurement of Plasma Protein Binding, Journal of Pharmaceutical Sciences; 2008; Volume 97; Issue 10; Pages 4586-4595, 2008). Incubations were conducted over an equilibration time of 30 hours at 37° C. Sample analysis was by HPLC-MS/MS and employed an [^13C, ^2H7] Compound A internal standard using the following bioanalytical method: […]

[2] = tested on: RS4;11 Acute Lymphoblastic Leukemia Xenograft; experiment: Efficacy of Compound A (HP-β-CD) at different infusion length in RS4;11 xenograft model in rats; format: in vivo, rat; conditions: single IV 5 hr infusion, 30% HP-β-CD
Method: Rag2−/− rats purchased from (SAGE) were inoculated with RS4;1 (10×10^6 cells/rat). When tumors grew to approximately […], rats were randomized to vehicle control (30% HP-β-CD) or Compound A 5 mg/kg in Vehicle 1) delivered as a single IV 30 min infusion (FIG. 6) and Vehicle control (30% HP-β-CD) or Compound A 5 mg/kg, 3 mg/kg and 1 mg/kg in Vehicle 1 delivered as a single IV 5 hr infusion (FIG. 7). The tumor sizes were measured twice a week and calculated as: Tumor Volume=(A×B^2)/2 where A and B are the tumor length and width (in mm), respectively.

[3] = Log D, octanol/water shake-flask; format: physicochemical; conditions: octanol / 10 mM sodium phosphate buffer pH 7.4
Method: Lipophilicity (Log D) of Compound A was measured using octanol/water shake-flask principles. The aqueous solution used was a 10 mM sodium phosphate buffer with pH adjusted to 7.4. Octanol was used as the organic partitioning layer.

[4] = Plasma protein binding, Equilibrium Dialysis RED device, rabbit plasma; format: in vitro ADME; conditions: female, New Zealand White, pooled frozen plasma, 30 hours at 37° C., read-out: percentage unbound
Method: as §1

[5] = Plasma protein binding, Equilibrium Dialysis RED device, mouse plasma; format: in vitro ADME; conditions: male, CD-1, pooled frozen plasma, 30 hours at 37° C., read-out: percentage unbound
Method: as §1

[6] = Solubility of Compound A (Form B), shake flask method; format: physicochemical; conditions: thermodynamic from solid, crystalline Form B, room temperature 24 hours
Method: The solubility of Compound A (Form B) was determined in water and propylene glycol. […] The solutions were centrifuged using ultra centrifuge for 30 min at 40,000 rpm, supernatant were transferred to a new centrifuge tube and centrifuged for another 30 min at 40,000 rpm. The propylene glycol supernatant was then assayed using a UV-HPLC method. The water supernatant was ultra-centrifuged for a third time before assay.

[7] = Plasma protein binding, Equilibrium Dialysis RED device, dog plasma; format: in vitro ADME; conditions: male, Beagle, pooled frozen plasma, 30 hours at 37° C., read-out: percentage unbound
Method: as §1

[8] = Plasma protein binding, Equilibrium Dialysis RED device, human plasma; format: in vitro ADME; conditions: male, pooled frozen plasma, 30 hours at 37° C., read-out: percentage unbound
Method: as §1

RS4;11 cells = experiment: Efficacy of dendrimers in RS4;11 xenograft model in mice; format: in vivo, mouse
Method: 5×10^6 RS4;11 cells in a total volume of 100 μl were inoculated subcutaneously at the mouse right flank. When the tumor volume reached approximately ˜350 mm^3, tumor-bearing mice were randomized into groups of 4 animals and treated with either control Vehicle (PBS) or treatment.
(§2) On specific day, for each treated group, calculate Inhibition value by formula: Inhibition %=(CG−TG)*100/(CG−1), in which “CG” means the geometric mean of rtv of the control group and “TG” means the Geometric Mean of Relative Tumor Volume (rtv) of the treated group. “CG” should use the corresponding control group of the treated group when calculated. If Inhibition >100%, then it's necessary to calculate the Regression by formula: Regression=1−TG

[9] = Cardiovascular telemetry studies in the rat; conditions: Compound A 10 mg/kg, single 30-minute intravenous infusion
Method: The telemetry transmitters were placed in the abdominal muscle and the arterial blood pressure catheter was placed in the abdominal aorta. The ECG electrodes were sutured to the dorsal surface of the xiphoid process and at the anterior mediastinum.
Compound A was administered at dose levels of 0 and 10 mg/kg.
Cardiovascular parameters were recorded continuously via receivers placed beneath the home cage for at least 1 hour pre-dose and up to 72 hours post-dose. Blood samples were taken to determine the level of plasma exposure of Compound A and all dendrimers, with clinical pathology and limited tissues for target organ histopathology taken from animals dosed with the macromolecule constructs only.

OCI-Ly10 tumor cells = experiment: In vivo anti-tumor activity in human DLBCL model (OCI-Ly10); parameters: species or system mouse; conditions: single agent, 12.5 mg/kg twice a day oral
Method: 5×10^6 OCI-Ly10 tumor cells were injected subcutaneously in the right flank of C.B.-17 SCID female mice in a volume of 0.1 mL containing 50% matrigel. Example 9 was formulated in citrate/phosphate buffer pH 5.0, diluted 1 to 10 with 5% glucose containing 1% w/v Kolliphor HS15, and dosed as a weekly intravenous (iv) administration at a volume of 5 mL/kg at a dose of 103 mg/kg (30 mg/kg API). Acalabrutinib was formulated in 0.5% hydroxypropyl methyl cellulose/0.2% Tween 80, and dosed twice a day (bid) as an oral (po) administration at a volume of 10 mL/kg at a dose of 12.5 mg/kg. Tumor volumes (measured by caliper), animal body weight, and tumor condition were recorded twice weekly for the duration of the study. The tumor volume was calculated using the formula:length (mm)×width (mm)^2×0.52. For efficacy studies, growth inhibition from the start of treatment was assessed by comparison of the differences in tumor volume between control and treated groups. Dosing began when mean tumor size reached approximately 166 mm3.

SuDHL-4 xenograft = SuDHL-4 xenograft model in SCID mice, alone and with rituximab; format: in vivo, mouse
Method: The SuDHL-4 xenograft model was used to test the ability of Examples 6 and 9 to enhance the activity of rituximab in inhibiting tumor growth. When tumors grew to approximately 175-250 mm^3, mice were randomized to the following groups:
The tumor sizes were measured 2 times a week and calculated as: Tumor Volume=(A×B^2)/2 where A and B are the tumor length and width (in mm), respectively.
Table 17 summarizes the tumor growth inhibition (TIC) and tumor growth delay (T-C) values calculated as % Inhibition & % Regression. The calculation is based on the geometric mean of RTV in each group.
as §2

## CNC(=O)c1cccc(-c2ccc3c(N4CCOC[C@@H]4C)nc(N4CCOC[C@@H]4C)nc3n2)c1 [AZD2014, vistusertib, reference compound]
NCI-H1048 tumor cells
  TGI: 84%

## CN(CCO)CC[C@H](CSc1ccccc1)Nc1ccc(S(=O)(=O)NC(=O)c2ccc(N3CCC([C@@H](O)c4ccccc4-c4ccc(Cl)cc4)CC3)cc2)cc1S(=O)(=O)C(F)(F)F [Compound A, 4-(4-((R)-(4′-chlorobiphenyl-2-yl)(hydroxy)methyl)piperidin-1-yl)-N-(4-((R)-4-((2-hydroxyethyl)(methyl)amino)-1-(phenylthio)butan-2-ylamino)-3-(trifluoromethylsulfonyl)phenylsulfonyl)benzamide]
[1]
  fraction unbound at 30 h, 100 μmol/L: < 1e-05
[2]
  efficacy when the infusion was prolonged: Comparable efficacy
[3]
  logD: > 3.5
[4]
  fraction unbound at 30 h, 100 μmol/L: 1.53e-05
[5]
  fraction unbound at 30 h, 100 μmol/L: 2.35e-05
[6]; organic solvent or mixture, propylene glycol
  solubility at 24 h: 6120 µg/mL (≈ 6.47 mM)
[6]; water, final pH 8.7
  solubility at 24 h: < 1 µg/mL
[7]
  fraction unbound at 30 h, 100 μmol/L: < 1e-05
[8]
  fraction unbound at 30 h, 100 μmol/L: 1.96e-05
RS4;11 cells; Compound A 5 mg/kg
  % Inhibition Day (47): >100%
  % Regression Day(47): 90%
RS4;11 cells; Compound A HP-β-CD 10 mg/kg IV once
  regression: 90%
[9]
  Cardiovascular: biphasic decrease in systolic and mean arterial blood pressure; also recorded: increases in heart rate; also recorded: decrease in QRS amplitude
  In-life: three rats were found dead and 3 found dead

## CC#CC(=O)N1CCC[C@H]1c1nc(-c2ccc(C(=O)Nc3ccccn3)cc2)c2c(N)nccn12 [acalabrutinib, reference compound]
OCI-Ly10 tumor cells
  tumor growth inhibition (TGI): ~58%

## rituximab [reference compound]
SuDHL-4 xenograft; rituximab 10 mg/kg
  T-C: >16 days
SuDHL-4 xenograft; rituximab 10 mg/kg i.p. once a week for 5 weeks
  % Inhibition (TIC) Day (41): 75.27%
